≈ marks a conversion by molar mass, not a printed value.
System: isoniazid-, rifampin-, and fluoroquinolone-resistant M. tuberculosis
Assay: microbe, parasite or virus in culture
Format: cell-based
Conditions: for MIC: Mycobacterium tuberculosis; for activity against resistant strains: isoniazid-, rifampin-, and fluoroquinolone-resistant M. tuberculosis

SMILES	MIC [µg/mL]	activity against resistant strains
CC12CC3CC(C)(C1)CC(C(=O)Nc1nc4ccc(OC(F)(F)F)cc4s1)(C3)C2 [Example 45, 3,5-dimethyl-N-[6-(trifluoromethoxy)-1,3-benzothiazol-2-yl]adamantane-1-carboxamide]	0.03 to 4 (≈ 0.0707 to 9.42 µM)	active
CC1CC(C(=O)Nc2nc3ccc(OC(F)(F)F)cc3s2)CC(C)(C)C1 (stereo not shown) [Example 46, 3,3,5-trimethyl-N-[6-(trifluoromethoxy)-1,3-benzothiazol-2-yl]cyclohexane-1-carboxamide]	0.03 to 4 (≈ 0.0776 to 10.4 µM)	active
CC1CC(C(=O)Nc2nc3c(F)cc(F)cc3s2)CC(C)(C)C1 (stereo not shown) [Example 80, N-(4,6-difluoro-1,3-benzothiazol-2-yl)-3,3,5-trimethylcyclohexane-1-carboxamide]	0.03 to 4 (≈ 0.0886 to 11.8 µM)	active
CC12CCCC(C(=O)Nc3nc4ccc(OC(F)(F)F)cc4s3)(CCC1)C2 [Example 5, 5-methyl-N-[6-(trifluoromethoxy)-1,3-benzothiazol-2-yl]bicyclo[3.3.1]nonane-1-carboxamide]	0.03 to 4 (≈ 0.0753 to 10 µM)	active
CC12CCCC(C(=O)Nc3nc4cc(Cl)cc(Cl)c4s3)(CCC1)C2 [Example 2, N-(5,7-dichloro-1,3-benzothiazol-2-yl)-5-methylbicyclo[3.3.1]nonane-1-carboxamide]	0.03 to 4 (≈ 0.0783 to 10.4 µM)	active
